Assay results published in patent publication US6355799B1, “Substituted benzene compounds, process for their preparation, and herbicidal and defoliant compositions containing them” (ISK Americas Incorporated, priority 1997, dated 2002).

Columns and labels:
Type in all cases: in vivo
[1] = tested on: field corn (Zea mays L., var. Dekalb 535, CORN); assay: Post-emerge test, crop safety; details: post-emerge, 14 days after application, rating scale 0-100
Outline: (§1)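 Sandy loam pots; pre-emerge: sown 1 d pre-spray, surface-watered after, then bottom-watered. Post-emerge: sown 8–21 d before, 2–3 leaf stage, + 0.25% v/v NIS, bottom-watered. Acetone, 187 l/ha track spray, 15–1000 g ai/ha. 0–100 injury score, day 14.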

[2] = tested on: upland rice (Oryza sp., var. Tebonnet, RICE); assay: Post-emerge test, crop safety; details: post-emerge, 14 days after application, rating scale 0-100
Outline: as §1

[3] = tested on: ivyleaf morningglory (Ipomoea hederacea, IPOHE); assay: Pre-emerge test, greenhouse herbicide activity screening; details: rated 14 days after application, 0 = no damage, 100 = complete death
Outline: as §1

[4] = tested on: large crabgrass (Digitaria sanguinalis, DIGSA); assay: as above; details: rated 14 days after application, 0 = no damage, 100 = complete death
Outline: as §1

[5] = tested on: green foxtail (Setaria viridis, SETVI); assay: as above; details: rated 14 days after application, 0 = no damage, 100 = complete death
Outline: as §1

[6] = tested on: velvetleaf (Abutilon theophrasti, ABUTH); assay: as above; details: rated 14 days after application, 0 = no damage, 100 = complete death
Outline: as §1

[7] = tested on: lambsquarters (Chenopodium album, CHEAL); assay: as above; details: rated 14 days after application, 0 = no damage, 100 = complete death
Outline: as §1

[8] = tested on: barnyardgrass (Echinochloa crus-galli, ECHCG); assay: as above; details: rated 14 days after application, 0 = no damage, 100 = complete death
Outline: as §1

[9] = tested on: johnsongrass (Sorghum halepense, SORHA); assay: as above; details: rated 14 days after application, 0 = no damage, 100 = complete death
Outline: as §1

[10] = tested on: sicklepod (Cassia obtusifolia, CASOB); assay: as above; details: rated 14 days after application, 0 = no damage, 100 = complete death
Outline: as §1

[11] = tested on: ivyleaf morningglory (Ipomoea hederacea, IPOHE); assay: Post-emerge test, greenhouse herbicide activity screening; details: post-emerge, 14 days after application, rating scale 0-100
Outline: (§2)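 Rating: 0–100 visual injury, 14 DAA. Application: acetone, 187 l/ha, 15–1000 g ai/ha, flat-fan track sprayer with nozzle 40–45 cm above soil or canopy. Post-emerge runs used 0.25% v/v surfactant on 2–3 leaf plants.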

[12] = tested on: large crabgrass (Digitaria sanguinalis, DIGSA); assay: as above; details: post-emerge, 14 days after application, rating scale 0-100
Outline: as §2

[13] = tested on: green foxtail (Setaria viridis, SETVI); assay: as above; details: post-emerge, 14 days after application, rating scale 0-100
Outline: as §2

[14] = tested on: common ragweed (Ambrosia artemisizfolia L., AMBEL); assay: as above; details: post-emerge, 14 days after application, rating scale 0-100
Outline: as §2

[15] = tested on: redroot pigweed (Amaranthus retroflexus, AMARE); assay: as above; details: post-emerge, 14 days after application, rating scale 0-100
Outline: as §2

[16] = tested on: velvetleaf (Abutilon theophrasti, ABUTH); assay: as above; details: post-emerge, 14 days after application, rating scale 0-100
Outline: as §2

[17] = tested on: lambsquarters (Chenopodium album, CHEAL); assay: as above; details: post-emerge, 14 days after application, rating scale 0-100
Outline: as §2

[18] = tested on: barnyardgrass (Echinochloa crus-galli, ECHCG); assay: as above; details: post-emerge, 14 days after application, rating scale 0-100
Outline: as §2

[19] = tested on: johnsongrass (Sorghum halepense, SORHA); assay: as above; details: post-emerge, 14 days after application, rating scale 0-100
Outline: as §2

[20] = tested on: sicklepod (Cassia obtusifolia, CASOB); assay: as above; details: post-emerge, 14 days after application, rating scale 0-100
Outline: as §2

[21] = tested on: field corn (Zea mays L., var. Dekalb 535, CORN); assay: Pre-emerge test, crop safety; details: rated 14 days after application, 0 = no damage, 100 = complete death
Outline: (§3)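 Herbicidal damage is scored 0 (none) to 100 (complete plant death) two weeks after a simulated field spray. Rates span 15–1000 g ai/ha, delivered in acetone at 187 l/ha. For post-emergence treatments, plants have 2–3 leaves and the spray carries 0.25% v/v non-ionic surfactant.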

[22] = tested on: upland rice (Oryza sp., var. Tebonnet, RICE); assay: Pre-emerge test, crop safety; details: rated 14 days after application, 0 = no damage, 100 = complete death
Outline: as §3

[23] = tested on: redroot pigweed (Amaranthus retroflexus, AMARE); assay: Pre-emerge test, greenhouse herbicide activity screening; details: rated 14 days after application, 0 = no damage, 100 = complete death
Outline: as §3

In the case of `COc1c(Cl)cc(F)c(-n2c(=O)cc(C(F)(F)F)n(C)c2=O)c1NC(=O)c1ccc2c(c1)OCO2` [2-73], the “phytotoxicity rating CORN” value ([1]; 63 g ai/ha) is reported as 25, the “phytotoxicity rating CORN” value ([1]; 250 g ai/ha) is reported as 50 and the “phytotoxicity rating RICE” value ([2]; 63 g ai/ha) is reported as 20. The “phytotoxicity rating RICE” value ([2]; 250 g ai/ha) was 70, the “Pre-emerge Herbicidal Activity, phytotoxicity rating (0-100), IPOHE” value ([3]; 63 g ai/ha) was 90 and the “Pre-emerge Herbicidal Activity, phytotoxicity rating (0-100), IPOHE” value ([3]; 250 g ai/ha) was 100. The “Pre-emerge Herbicidal Activity, phytotoxicity rating (0-100), DIGSA” value ([4]; 63 g ai/ha) was 100, the “Pre-emerge Herbicidal Activity, phytotoxicity rating (0-100), DIGSA” value ([4]; 250 g ai/ha) was 100 and the “Pre-emerge Herbicidal Activity, phytotoxicity rating (0-100), SETVI” value ([5]; 63 g ai/ha) was 100. For the same compound, the “Pre-emerge Herbicidal Activity, phytotoxicity rating (0-100), SETVI” value ([5]; 250 g ai/ha) was 100, the “Pre-emerge Herbicidal Activity, phytotoxicity rating (0-100), ABUTH” value ([6]; 63 g ai/ha) was 100 and the “Pre-emerge Herbicidal Activity, phytotoxicity rating (0-100), ABUTH” value ([6]; 250 g ai/ha) was 100. For the same compound, the “Pre-emerge Herbicidal Activity, phytotoxicity rating (0-100), CHEAL” value ([7]; 63 g ai/ha) was 100, the “Pre-emerge Herbicidal Activity, phytotoxicity rating (0-100), CHEAL” value ([7]; 250 g ai/ha) was 100 and the “Pre-emerge Herbicidal Activity, phytotoxicity rating (0-100), ECHCG” value ([8]; 63 g ai/ha) was 90. For the same compound, the “Pre-emerge Herbicidal Activity, phytotoxicity rating (0-100), ECHCG” value ([8]; 250 g ai/ha) was 100, the “Pre-emerge Herbicidal Activity, phytotoxicity rating (0-100), SORHA” value ([9]; 63 g ai/ha) was 75 and the “Pre-emerge Herbicidal Activity, phytotoxicity rating (0-100), SORHA” value ([9]; 250 g ai/ha) was 100. For the same compound, the “Pre-emerge Herbicidal Activity, phytotoxicity rating (0-100), CASOB” value ([10]; 63 g ai/ha) was 100, the “Pre-emerge Herbicidal Activity, phytotoxicity rating (0-100), CASOB” value ([10]; 250 g ai/ha) was 100 and the “phytotoxicity rating IPOHE” value ([11]; 63 g ai/ha) was 100. The “phytotoxicity rating IPOHE” value ([11]; 250 g ai/ha) was 100, the “phytotoxicity rating DIGSA” value ([12]; 63 g ai/ha) was 30 and the “phytotoxicity rating DIGSA” value ([12]; 250 g ai/ha) was 30. The “phytotoxicity rating SETVI” value ([13]; 63 g ai/ha) was 50, the “phytotoxicity rating SETVI” value ([13]; 250 g ai/ha) was 90 and the “phytotoxicity rating AMBEL” value ([14]; 63 g ai/ha) was 100. The “phytotoxicity rating AMBEL” value ([14]; 250 g ai/ha) was 100, the “phytotoxicity rating AMARE” value ([15]; 63 g ai/ha) was 100 and the “phytotoxicity rating AMARE” value ([15]; 250 g ai/ha) was 100. For the same compound, the “phytotoxicity rating ABUTH” value ([16]; 63 g ai/ha) was 100, the “phytotoxicity rating ABUTH” value ([16]; 250 g ai/ha) was 100 and the “phytotoxicity rating CHEAL” value ([17]; 63 g ai/ha) was 70. The “phytotoxicity rating CHEAL” value ([17]; 250 g ai/ha) was 95, the “phytotoxicity rating ECHCG” value ([18]; 63 g ai/ha) was 30 and the “phytotoxicity rating ECHCG” value ([18]; 250 g ai/ha) was 60. For the same compound, the “phytotoxicity rating SORHA” value ([19]; 63 g ai/ha) was 10, the “phytotoxicity rating SORHA” value ([19]; 250 g ai/ha) was 50 and the “phytotoxicity rating CASOB” value ([20]; 63 g ai/ha) was 60. For the same compound, the “phytotoxicity rating CASOB” value ([20]; 250 g ai/ha) was 100, the “Pre-emerge phytotoxicity rating (0-100), crop damage, CORN” value ([21]; 63 g ai/ha) was 50 and the “Pre-emerge phytotoxicity rating (0-100), crop damage, CORN” value ([21]; 250 g ai/ha) was 95. For the same compound, the “Pre-emerge phytotoxicity rating (0-100), crop damage, RICE” value ([22]; 63 g ai/ha) was 80, the “Pre-emerge phytotoxicity rating (0-100), crop damage, RICE” value ([22]; 250 g ai/ha) was 100 and the “Pre-emerge Herbicidal Activity, phytotoxicity rating (0-100), AMARE” value ([23]; 63 g ai/ha) was 100. For the same compound, the “Pre-emerge Herbicidal Activity, phytotoxicity rating (0-100), AMARE” value ([23]; 250 g ai/ha) was 100.
